PMC9143821, “Design and Synthesis of a Novel 4-aryl-N-(2-alkoxythieno [2,3-b]pyrazine-3-yl)-4-arylpiperazine-1-carboxamide DGG200064 Showed Therapeutic Effect on Colon Cancer through G2/M Arrest” (Pharmaceuticals, 2022)
Where a SMILES comes first, the peptide text is derived from it. The star is where a group is joined. Cbz = O=C(OCc1ccccc1)*

Key:
HCT116 = assay: SRB assay, colon cancer cell growth inhibition; assay type: cell-based; conditions: Homo sapiens, HCT-116
Protocol: (§1) A series of 4-phenyl-N-(thieno[2,3-b]pyrazin-3-yl)piperazine-1-carboxamides derivatives 7a–7i were tested for the colon cancer cell growth inhibition effect using the SRB assay (Table 2). […] Compounds 7a and 7b, containing chlorine at the C6 position of thieno[2,3-b]pyrazine ring, have weaker anticancer activity than its proton-containing derivatives 7c–7i. On the other hand, 7c has shown higher inhibition activity than 7d with methyl substituents at the C3 and C5 positions of the phenyl ring. […] Substitutions with one fluorine atom in the phenyl ring could not improve the inhibition effect of the compounds 7g–7h.
(§2) The HCT116, HCT8, KM12, HCT15, HT29, COLO-205, SW620 cell line was obtained from the National Cancer Institute (Material Transfer Agreement number: 2702–09). DLD1 cell line was obtained from the Korean cell line bank. Cells were cultured in complete Roswell Park Memorial Institute (RPMI) 1640 medium (Hyclone, South Logan, UT, USA) containing 10% fetal bovine serum (Hyclone, South Logan, UT, USA) in an atmosphere of 5% CO2 and 100% humidity at 37 °C. A small interfering RNA (siRNA) duplex targeting human c-Jun and FBXW7 (Genolution, Seoul, Korea) were introduced into cells using Lipofector-EXT (AptaBio, Yongin, Korea), according to the manufacturer’s instructions. As negative controls, cells were incubated with Lipofector-EXT (AptaBio, Yongin, KOR) and a negative siRNA (Genolution, Seoul, Korea).
(§3) Cells (100 μL containing 5000–10,000 cells/well) were incubated in 96 well microtiter plates. After 24 h, drugs were added (100 μL) to each well and the cultures were incubated for 48 h at 37 °C. The cells were then fixed in TCA (50 μL per well). The plates were incubated for a minimum of 1 h or a maximum of 3 h at 4 °C. The liquid was removed from the plate, which was then rinsed five times with water and allowed to dry at room temperature (rt) for approximately 12–24 h. The fixed cells were stained with 100 μL Sulforhodamine B (SRB) solution for 5 min at rt. After staining, the plate was washed three times with 1% glacial acetic acid and dried at rt for approximately 12–24 h. The SRB was then solubilized in 10 mM Tris buffer, and the absorbance was read at 515 nm. The effect of the drugs was expressed as GI50 (50% growth inhibition).

SW620 = assay: SRB assay, colon cancer cell growth inhibition; assay type: cell-based; conditions: Homo sapiens, SW-620, 48 h
Protocol: as §1, §2, §3

Colo205 = assay: SRB assay, colon cancer cell growth inhibition; assay type: cell-based; conditions: Homo sapiens, COLO 205, 48 h
Protocol: as §1, §2, §3

KM12 = assay: SRB assay, colon cancer cell growth inhibition; assay type: cell-based; conditions: Homo sapiens, 48 h
Protocol: as §1, §2, §3

HCT15 = assay: SRB assay, colon cancer cell growth inhibition; assay type: cell-based; conditions: Homo sapiens, HCT-15, 48 h
Protocol: as §1, §2, §3

HCT8 = assay: SRB assay, colon cancer cell growth inhibition; assay type: cell-based; conditions: Homo sapiens, HCT-8, 48 h
Protocol: as §1, §2, §3

HT29 = assay: SRB assay, colon cancer cell growth inhibition; assay type: cell-based; conditions: Homo sapiens, HT-29, 48 h
Protocol: as §1, §2, §3

[1] = Pharmacokinetics in SD rats; assay type: in vivo; conditions: male, Sprague-Dawley, rat, plasma
Protocol: Sprague–Dawley rats (adult males, 250–300 g) were fasted overnight, and the femoral vein (for iv administration of the compound) and jugular vein (for blood sampling) of each rat were cannulated with polyethylene tubing. The selected compounds dissolved in 30% polyethylene glycol (PEG) in saline were administered either intravenously or orally. At various time points after administration, blood samples (0.5 mL) were collected from the jugular vein, transferred to heparin-coated tubes, centrifuged to separate off the plasma. The plasma was stored at −80 °C until assayed. Compound concentrations in plasma were determined by LC/MS/MS analysis (API4000 mass spectrometer, Applied Biosystem, Waltham, MA, USA). Pharmacokinetic parameters were analyzed using the WinNonlin software program. The area under the curve (AUC) was calculated using the trapezoidal rule extrapolated to infinity. The terminal elimination half-life, systemic clearance, and volume of distribution at steady state were determined. The extent of absolute oral bioavailability (F) was estimated by comparing the AUC values after intravenous and oral administration of the compounds.

FBXW7/c-Jun interaction = assay: Immunoprecipitation, ubiquitination and FBXW7/c-Jun interaction; assay type: cell-based, human; conditions: HCT116 and DLD1; DGG200064 50 nM 18 h; MG132 10 μM 6 h
Source text: To investigate whether the ubiquitination of c-Jun is suppressed through the inhibition of c-Jun and FBXW7 binding by DGG200064, c-Jun immunoprecipitation was done to observe protein–protein interaction (Figure 4). E3 ligase, such as FBXW7, binds the protein to the ubiquitin chain through covalent bonds and rapidly degrades the protein through 26S proteasome. When treated with MG132 as a proteasome inhibitor, the ubiquitination of c-Jun increased compared to both control HCT116 and DLD1 cells. In contrast, the c-Jun ubiquitination was inhibited by DGG200064. The binding between c-Jun and FBXW7 was reduced with DGG200064 treatment. The FBXW7 protein, also known as CDC4, is a component of the SCF complex ubiquitin ligase and is known as a modulator of several substrates including cyclin E, c-Myc, c-Jun, and Notch. To check the selectivity of DGG200064 towards FBXW7 substrates, the change of c-Jun, cyclin E, and c-Myc by DGG200064 was analyzed. […] Cyclin E immunoprecipitation was done to test whether the ubiquitination of cyclin E by FBXW7 is inhibited by DGG200064 in HCT116 (Figure S2b, Supplementary Materials). There were no changes in cyclin E ubiquitination with DGG200064 treatment.
To identified ubiquitination of c-Jun by DGG200064, HCT116 cells were treated with/without MG132 (10 μM) for 6h, DGG200064 (50 nM) for 18 h. The cell lysate was prepared using RIPA buffer for immunoprecipitation. Each lysate was mixed with antibodies (1 μg/mL) of c-Jun or MYC at 4 °C overnight in immunoprecipitation buffer containing 50 mM Tris-Cl,150 mM NaCl, 1 mM EDTA, 0.5% Triton X-100, pH 7.4, and reacted with 10 μL of protein A/G beads UltraLink Resin (50:50 resin: buffer slurry condition) (Peirce, #35133) for 2 h on RT for precipitation. After reaction and centrifugation at 3000 rpm for 3 min, the immunoprecipitated samples were washed with 500 μL of immunoprecipitation buffer by tapping and centrifuged. The washing was repeated five times before western blotting.

[2] = quoted in docking discussion, cell line not stated there (values match HCT116)

GI50 (HCT116; HCT116, SRB, 48 h) [nM]	GI50 (SW620) [nM]	GI50 (Colo205) [nM]	GI50 (KM12) [nM]	GI50 (HCT15) [nM]	GI50 (HCT8) [nM]	GI50 (HT29) [nM]	GI50 (HCT116; [2]) [nM]	Cmax ([1]; no unit, species or route stated in b12 (7c value equals SD rats PO of Table 3)) [ng/mL]	bioavailability ([1]; species and route not stated in b12 (7c value equals SD rats PO of Table 3), read-out: bioavailability (F)) [%]	Compound	c-Jun ubiquitination (FBXW7/c-Jun interaction)
71	53	35	74	68	58	35	–	–	–	CCOc1nc2ccsc2nc1NC(=O)N1CCN(c2cc(OC)cc(OC)c2)CC1 [Compound 7i, 4-(3,5-dimethoxyphenyl)-N-(2-ethoxythieno[2,3-b]pyrazin-3-yl)piperazine-1-carboxamide]	–
344	427	173	273	484	761	408	≥ 100	–	–	COc1cc(OC)cc(N2CCN(C(=O)Nc3nc4sc(Cl)cc4nc3OC)CC2)c1 [Compound 7a, N-(6-chloro-2-methoxythieno[2,3-b]pyrazin-3-yl)-4-(3,5dimethoxyphenyl)piperazine-1-carboxamide]	–
244	273	900	244	437	900	342	–	–	–	COc1nc2cc(Cl)sc2nc1NC(=O)N1CCN(c2cc(C)cc(C)c2)CC1 [Compound 7b, N-(6-chloro-2-methoxythieno[2,3-b]pyrazin-3-yl)-4-(3,5-dimethylphenyl)piperazine-1-carboxamide]	–
1.9	34	28	21	36	37	21	–	195	21.8	COc1cc(C)cc(N2CCN(C(=O)Nc3nc4sccc4nc3OC)CC2)c1 [Compound 7f, 4-(3-methoxy-5-methylphenyl)-N-(2-methoxythieno[2,3-b]pyrazin-3-yl)piperazine-1-carboxamide]	–
33	38	40	32	38	59	26	–	–	–	COc1nc2ccsc2nc1NC(=O)N1CCN(c2cc(C)cc(C)c2)CC1 [Compound 7d, 4-(3,5-Dimethylphenyl)-N-(2-methoxythieno[2,3-b]pyrazin-3-yl)piperazine-1 carboxamide]	–
–	–	–	–	–	–	–	–	–	–	CC(C)C[C@@H](C=O)NC(=O)[C@H](CC(C)C)NC(=O)[C@H](CC(C)C)NC(=O)OCc1ccccc1 [MG132, reference compound] (Cbz-Leu-Leu-Leu-aldehyde)	increased
307	288	287	426	507	269	672	≥ 100	–	–	COc1nc2ccsc2nc1NC(=O)N1CCN(c2cc(F)cc(F)c2)CC1 [Compound 7e, 4-(3,5-Difluorophenyl)-N-(2-methoxythieno[2,3-b]pyrazin-3-yl)piperazine-1-carboxamide]	–
45	29	14	22	30	39	57	–	–	–	COc1cc(F)cc(N2CCN(C(=O)Nc3nc4sccc4nc3OC)CC2)c1 [Compound 7g, 4-(3-Fluoro-5-methoxyphenyl)-N-(2-methoxythieno[2,3-b]pyrazin-3-yl)piperazine-1-carboxamide]	–
32	40	28	38	42	51	29	–	–	–	COc1nc2ccsc2nc1NC(=O)N1CCN(c2cc(C)cc(F)c2)CC1 [Compound 7h, 4-(3-Fluoro-5-methylphenyl)-N-(2-methoxythieno[2,3-b]pyrazin-3-yl)piperazine-1-carboxamide]	–
